Experimental data published in US10501460B2, “Heterocyclic compounds and uses thereof” (Plexxikon Inc., priority 2013, dated 2019).

What was measured:
MV-4-11 = experiment: Oncology cell growth assay MV-4-11 (CellTiter Glo, 72 hours); format: cell-based; settings: Homo sapiens, MV4-11, 72 h; MV-4-11 cell growth inhibitory activity, 3d
How it was run: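 MV-4-11 cells (MLL-AF4 AML) exposed 72 h to 8-point 1:3 titration, top final 10 μM, 0.2% DMSO. CellTiter Glo luminescence as cell-number readout, normalized to DMSO controls; pIC50 from four-parameter fit.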

bromodomain = experiment: Bromodomain cell assays of Example 40 (at least one of them); format: cell-based; settings: in at least one of the bromodomain cell assays described in Example 40
How it was run: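 Growth inhibition: 3000 MV-4-11, MOLM-13, MM.1S or neuroblastoma cells/well got an 8-point 1:3 series from 10 μM top (0.2% DMSO) for 72 h, then CellTiter-Glo luminescence. Myc reporter: MV-4-11 with E-box firefly luciferase, 24 h exposure, One-Glo luminescence plus CellTiter-Fluo cell count. pIC50 from four-parameter fit.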

BRD4-BD1 (44-164) = target: T1, BRD4-BD1 (44-164) (Homo sapiens, UniProt O60885); experiment: Alphascreen binding assay BRD4-BD1 (BRD4 biochemical inhibitory activity); settings: read-out: Biochemical activity (IC50 μM) BRD4(1) H4
T1 construct: BRD4-BD1 (44-164); made in house; host or cells: E. coli BL21-CodonPlus (DE3)
Description: Binding of compounds of formula (I) with bromodomain 2, 3 4 was assessed using Alphascreen binding assay. The inhibition of the interaction between bromodomain and its acetylated target protein (Filippakopoulos P et al. 2012) was measured quantitatively using recombinant BRD proteins, an acetylated Histone 4 peptide and AlphaScreen™ technology. In absence of inhibition the BRD protein bound to AlphaScreen™ nickel chelate acceptor beads can interact with the acetylated Histone 4 peptide which is immobilized by the AlphaScreen™ Streptavidin coated beads. This interaction brings donor and acceptor beads in proximity. The close proximity allows the singlet oxygen produced by laser excitation of the donor beads to reach the acceptor beads and generate a luminescence signal. BRD inhibitors result in a decrease in the proximity signal through an inhibition of the BRD—acetylated peptide interaction.
Recombinant human bromodomains containing the N-terminal bromodomain (BRD2-BD1 (71-194), BRD3-BD1 (24-144) and BRD4-BD1 (44-164)) or dual bromodomains (BRD4-BD12 (1-477), BRD4-BD12 (1-472)) were prepared and purified as described in protein expression and purification session. The peptide is human Histone H41-21K5AcK8AcK12AcK16Ac-Biotin (Anaspec Calif., USA).
Protocol for BRD2, BRD3 and BRD4 assay: All components are prepared in buffer composed of 50 mM HEPES pH 7.5, 100 mM NaCl, 0.01% bovine serum albumin (“BSA”), 0.01% Triton X-100, 2 mM dithiothreitol (“DTT”). 7 μL of Bromodomain protein and 7 μL of peptide are added to wells containing 1 μL of various concentrations of test compounds of formula (I) or DMSO vehicle in an Alphaplate (PerkinElmer Ga., USA) and incubated for 1 hour at room temperature. 4 μL donor and acceptor bead mixture is then added with final concentrations of 7.5 μg/ml. 30 minutes after bead addition, Alpha signal is read on the Envision spectrometer ([…]Ex 680 nm, […]Em 520-620 nm). Final concentrations of bromodomain proteins and peptide are as shown below.
All data was normalized to the mean of 16 high and 16 low control wells on each plate. A four parameter curve fit of the following formula was then applied: Y=a+(b−a)/(1+(x/c)^d) Where ‘a’ is the minimum, ‘b’ is the maximum, ‘c’ is the pIC50 and ‘d’ is the Hill slope. Protein Expression and Purification
Recombinant human bromodomains containing the N-terminal bromodomain (BRD2-BD1 (71-194), BRD3-BD1 (24-144) and BRD4-BD1 (44-164)) or dual bromodomains (BRD4-BD12 (1-477), BRD4-BD12 (1-472)) were expressed in E. coli cells (in a modified pET vector) with an N-terminal six-His tag and purified using a combination of both IMAC (Ni-affinity) and size exclusion chromatography steps.
Recombinant BRD proteins were expressed using the E. coli strain BL21-CodonPlus (DE3) (Agilent Technologies Calif., USA). Cells were grown in Terrific Broth (TB) media to an OD600 of 1.2 at 37° C. at which temperature was reduced to 25° C., protein was induced with 1.0 mM ispropyl-β-D-thiogalactopyranoside (“IPTG”) for 12-18 hours and harvested by centrifugation at 8000×g for 20 minutes. Cells were re-suspended in 0.1M K2PO4 pH 8.0, 250 mM NaCl, 10% Glycerol, 0.75% NP-40, 25 mM Imidazole, 5 mM beta-mercaptoethanol (“BME”) with 0.2 mg/ml Lysosyme, 2.0 mM phenylmethanesulfonyl fluoride (“PMSF”), 25 μg/ml DNAse I, incubated on ice for 30 minutes and lyzed with a cell disruptor (MicroFluidics Mass., USA). The lysate was clarified by centrifugation at 20,000×g for 2 hours. The protein was captured with Ni-NTA resin (Life Technologies, USA). Contaminating proteins were washed off with 25 mM Tris-HCl pH 8.3, 250 mM NaCl, 12% Glycerol and 50 mM Imidazole. Following 3× wash steps, protein was eluted step wise using a 50 mM HEPES pH 7.5, 500 mM NaCl and 400 mM Imidazole. The protein was further purified using Gel Filtration column 26/600 Superdex 200 (GE Biosciences NJ, USA) in 50 mM HEPES pH 7.5, 250 mM NaCl. The protein was aliquoted and flash-frozen in liquid Nitrogen. […]

## Cc1noc(C)c1-c1cnc2ccn(S(=O)(=O)c3cccc(Cl)c3)c2c1 [P-0057, 4-[1-(3-chlorophenyl)sulfonylpyrrolo[3,2-b]pyridin-6-yl]-3,5-dimethyl-isoxazole]
MV-4-11
  IC50: ≤ 1 µM
bromodomain
  IC50: < 10 µM
BRD4-BD1 (44-164)
  IC50: 1 to 10 µM

## Cc1nn(C(F)F)cc1S(=O)(=O)n1ccc2ncc(-c3c(C)noc3C)cc21 [P-0058, 4-[1-[1-(difluoromethyl)-3-methyl-pyrazol-4-yl]sulfonylpyrrolo[3,2-b]pyridin-6-yl]-3,5-dimethyl-isoxazole]
MV-4-11
  IC50: 1 to 10 µM
bromodomain
  IC50: < 10 µM
BRD4-BD1 (44-164)
  IC50: 1 to 10 µM

## Cc1csc(S(=O)(=O)n2ccc3ncc(-c4c(C)noc4C)cc32)c1 [P-0059, 3,5-dimethyl-4-[1-[(4-methyl-2-thienyl)sulfonyl]pyrrolo[3,2-b]pyridin-6-yl]isoxazole]
MV-4-11
  IC50: 1 to 10 µM
bromodomain
  IC50: < 10 µM
BRD4-BD1 (44-164)
  IC50: 1 to 10 µM

## Cc1noc(C)c1-c1cnc2ccn(S(=O)(=O)c3cccc(OC(F)F)c3)c2c1 [P-0061, 4-[1-[3-(difluoromethoxy)phenyl]sulfonylpyrrolo [3,2-b]pyridin-6-yl]-3,5-dimethyl-isoxazole]
MV-4-11
  IC50: 1 to 10 µM
bromodomain
  IC50: < 10 µM
BRD4-BD1 (44-164)
  IC50: 1 to 10 µM

## [2H]C([2H])([2H])n1cc(CC2CCC(F)(F)CC2)c2cc(-c3c(C)noc3C)cnc21 [P-0079, 4-[3-[(4,4-difluorocyclohexyl)methyl]-1-(trideuteriomethyl)pyrrolo[2,3-b]pyridin-5-yl]-3,5-dimethyl-isoxazole]
MV-4-11
  IC50: 1 to 10 µM
bromodomain
  IC50: < 10 µM
BRD4-BD1 (44-164)
  IC50: ≤ 1 µM

## [2H]C([2H])([2H])n1cc(C(OC)C2CCC(F)(F)CC2)c2cc(-c3c(C)noc3C)cnc21 (stereo not drawn) [P-0080, 4-[3-[(4,4-difluorocyclohexyl)-methoxy-methyl]-1-(trideuteriomethyl)pyrrolo[2,3-b]pyridin-5-yl]-3,5-dimethyl-isoxazole]
MV-4-11
  IC50: ≤ 1 µM
bromodomain
  IC50: < 10 µM
BRD4-BD1 (44-164)
  IC50: ≤ 1 µM

## Cc1noc(C)c1-c1cnc2c(-c3cccnc3)c[nH]c2c1 [P-0083, 3,5-dimethyl-4-[3-(3-pyridyl)-1H-pyrrolo[3,2-b]pyridin-6-yl]isoxazole]
MV-4-11
  IC50: 1 to 10 µM
bromodomain
  IC50: < 10 µM
BRD4-BD1 (44-164)
  IC50: 1 to 10 µM

## Cc1noc(C)c1-c1cnc2[nH]cc(C(=O)C3CCSCC3)c2c1 [P-0091, [5-(3,5-dimethylisoxazol-4-yl)-1H-pyrrolo[2,3-b]pyridin-3-yl]-tetrahydrothiopyran-4-yl-methanone]
MV-4-11
  IC50: 1 to 10 µM
bromodomain
  IC50: < 10 µM
BRD4-BD1 (44-164)
  IC50: ≤ 1 µM

## [2H]C([2H])([2H])n1cc(CC2CCN(C(=O)OCc3ccccc3)CC2)c2cc(-c3c(C)noc3C)cnc21 [P-0092, benzyl 4-[[5-(3,5-dimethylisoxazol-4-yl)-1-(trideuteriomethyl)pyrrolo[2,3-b]pyridin-3-yl]methyl]piperidine-1-carboxylate]
MV-4-11
  IC50: 1 to 10 µM
bromodomain
  IC50: < 10 µM
BRD4-BD1 (44-164)
  IC50: ≤ 1 µM

## Cc1noc(C)c1-c1cnc2[nH]cc(C=C3CC[S+]([O-])CC3)c2c1 (stereo not drawn) [P-0093, 4-[[5-(3,5-dimethylisoxazol-4-yl)-1H-pyrrolo[2,3-b]pyridin-3-yl]methylene]thiane 1-oxide]
MV-4-11
  IC50: 1 to 10 µM
bromodomain
  IC50: < 10 µM
BRD4-BD1 (44-164)
  IC50: 1 to 10 µM

## Cc1noc(C)c1-c1cnc2c(c1)c(C=C1CCS(=O)(=O)CC1)cn2S(=O)(=O)c1ccccc1 [P-0097, 4-[[1-(benzenesulfonyl)-5-(3,5-dimethylisoxazol-4-yl)pyrrolo[2,3-b]pyridin-3-yl]methylene]thiane 1,1-dioxide]
MV-4-11
  IC50: 1 to 10 µM
bromodomain
  IC50: < 10 µM
BRD4-BD1 (44-164)
  IC50: 1 to 10 µM

## Cc1noc(C)c1-c1cnc2[nH]cc(C=C3CCS(=O)(=O)CC3)c2c1 [P-0099, 4-[[5-(3,5-dimethylisoxazol-4-yl)-1H-pyrrolo[2,3-b]pyridin-3-yl]methylene]thiane 1,1-dioxide]
MV-4-11
  IC50: 1 to 10 µM
bromodomain
  IC50: < 10 µM
BRD4-BD1 (44-164)
  IC50: 1 to 10 µM

## Cc1noc(C)c1-c1cnc2c(c1)c(CC1CC3CCC1C3)cn2C (stereo not drawn) [P-0100, 3,5-dimethyl-4-[1-methyl-3-(norbornan-2-ylmethyl)pyrrolo[2,3-b]pyridin-5-yl]isoxazole]
MV-4-11
  IC50: 1 to 10 µM
bromodomain
  IC50: < 10 µM
BRD4-BD1 (44-164)
  IC50: 1 to 10 µM

## Cc1noc(C)c1-c1cnc2c(-c3cnc(C4CC4)nc3)cn(S(=O)(=O)c3ccccc3)c2c1 [P-0102, 4-[1-(benzenesulfonyl)-3-(2-cyclopropylpyrimidin-5-yl)pyrrolo[3,2-b]pyridin-6-yl]-3,5-dimethyl-isoxazole]
MV-4-11
  IC50: 1 to 10 µM
bromodomain
  IC50: < 10 µM
BRD4-BD1 (44-164)
  IC50: 1 to 10 µM

## CCCCC(O)(c1cn(C)c2ncc(-c3c(C)noc3C)cc12)C1CCC(F)(F)CC1 (stereo not drawn) [P-0108, 1-(4,4-difluorocyclohexyl)-1-[5-(3,5-dimethylisoxazol-4-yl)-1-methyl-pyrrolo[2,3-b]pyridin-3-yl]pentan-1-ol]
MV-4-11
  IC50: ≤ 1 µM
bromodomain
  IC50: < 10 µM
BRD4-BD1 (44-164)
  IC50: ≤ 1 µM

## CCCCC(c1cn(C)c2ncc(-c3c(C)noc3C)cc12)C1CCC(F)(F)CC1 (stereo not drawn) [P-0109, 4-[3-[1-(4,4-difluorocyclohexyl)pentyl]-1-methyl-pyrrolo[2,3-b]pyridin-5-yl]-3,5-dimethyl-isoxazole]
MV-4-11
  IC50: 1 to 10 µM
bromodomain
  IC50: < 10 µM
BRD4-BD1 (44-164)
  IC50: ≤ 1 µM

## Cc1noc(C)c1-c1cnc2c(C#CCF)cn(S(=O)(=O)c3ccccc3)c2c1 [P-0157, 4-[1-(benzenesulfonyl)-3-(3-fluoroprop-1-ynyl)pyrrolo[3,2-b]pyridin-6-yl]-3,5-dimethyl-isoxazole]
MV-4-11
  IC50: ≤ 1 µM
bromodomain
  IC50: < 10 µM
BRD4-BD1 (44-164)
  IC50: ≤ 1 µM

## Cc1cc(-c2cn(S(=O)(=O)c3ccccc3)c3cc(-c4c(C)noc4C)cnc23)[nH]n1 [P-0164, 4-[1-(benzenesulfonyl)-3-(3-methyl-1H-pyrazol-5-yl)pyrrolo[3,2-b]pyridin-6-yl]-3,5-dimethyl-isoxazole]
MV-4-11
  IC50: ≤ 1 µM
bromodomain
  IC50: < 10 µM
BRD4-BD1 (44-164)
  IC50: ≤ 1 µM

## Cc1noc(C)c1-c1cnc2c(CCC(=O)O)cn(S(=O)(=O)c3ccccc3)c2c1 [P-0174, 3-[1-(benzenesulfonyl)-6-(3,5-dimethylisoxazol-4-yl)pyrrolo[3,2-b]pyridin-3-yl]propanoic acid]
MV-4-11
  IC50: 1 to 10 µM
bromodomain
  IC50: < 10 µM
BRD4-BD1 (44-164)
  IC50: 1 to 10 µM

## Cc1noc(C)c1-c1cnc2c(c1)c(S(=O)(=O)c1ccccc1)cn2C1COC1 [P-0179, 4-[3-(benzenesulfonyl)-1-(oxetan-3-yl)pyrrolo[2,3-b]pyridin-5-yl]-3,5-dimethyl-isoxazole]
MV-4-11
  IC50: 1 to 10 µM
bromodomain
  IC50: < 10 µM
BRD4-BD1 (44-164)
  IC50: 1 to 10 µM

## Cc1noc(C)c1-c1cnc2c(c1)c(Sc1ccccc1)cn2C1CCOC1 (stereo not drawn) [P-0180, 3,5-dimethyl-4-(3-phenylsulfanyl-1-tetrahydrofuran-3-yl-pyrrolo[2,3-b]pyridin-5-yl)isoxazole]
MV-4-11
  IC50: 1 to 10 µM
bromodomain
  IC50: < 10 µM
BRD4-BD1 (44-164)
  IC50: 1 to 10 µM
